Measured values: paper PMC6837341, “Evolutionarily conserved susceptibility of the mitochondrial respiratory chain to SDHI pesticides and its consequence on the impact of SDHIs on human cultured cells” (PLoS ONE, 2019)
Like-named read-outs stand apart in the source and are kept apart here.

Key:
[1] = according to European regulations; ref European regulations; cited from earlier work
[2] = target: T1, glycerol-3-phosphate cytochrome c reductase (G3PDH+CIII) (Apis mellifera, UniProt P34845); experiment: GCCR activity, honeybee crude mitochondria; type: biochemical
T1 sequence (P34845 1-383): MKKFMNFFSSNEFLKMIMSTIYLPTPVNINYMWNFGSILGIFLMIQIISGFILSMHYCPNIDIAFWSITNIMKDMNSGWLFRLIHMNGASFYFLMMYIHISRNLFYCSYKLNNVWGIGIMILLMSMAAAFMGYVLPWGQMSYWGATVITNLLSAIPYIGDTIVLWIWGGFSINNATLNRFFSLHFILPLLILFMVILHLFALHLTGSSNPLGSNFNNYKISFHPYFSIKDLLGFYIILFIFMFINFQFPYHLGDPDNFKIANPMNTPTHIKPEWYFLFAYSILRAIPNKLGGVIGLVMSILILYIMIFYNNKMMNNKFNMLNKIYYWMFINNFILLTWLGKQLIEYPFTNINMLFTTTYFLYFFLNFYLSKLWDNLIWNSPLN
Experimental: A. mellifera individuals (n = 5) were a kind gift from Jacques Kemp (beekeeper; Saint-Rémy-lès-Chevreuse, Yvelines, France). Whole bodies of individuals frozen in dry ice, except heads, were homogenized using a 1 ml glass-glass Potter-Elvehjem homogenizer in an ice-cold medium consisting of 20 mM Tris (pH 7.2), 0.25 M sucrose, 40 mM KCl, 2 mM EGTA, and 1 mg/ml BSA. The homogenate was centrifuged at 1,500 g for 5 min. The mitochondria contained in the supernatant were spun down at 10,000 g for 10 min. The pellet of crude mitochondria was distributed as 20-μl aliquots and kept frozen at -80°C.
(§1) RC enzyme activities were spectrophotometrically measured using a pseudo-double-wavelength spectrophotometer (Cary 60, Agilent). Malonate-sensitive succinate quinone dichlorophenolindophenol (DCPIP) reductase (SQDR), as an indicator of the activity of the isolated SDH enzyme (isolated CII), and glycerol-3-phosphate quinone DCPIP reductase (GQDR), as a measure of the activity of the isolated glycerol-3-phosphate dehydrogenase (G3PDH), were assayed as previously described. […] With this aim, we measured the malonate-sensitive succinate cytochrome c reductase (SDH+CIII), glycerol-3-phosphate cytochrome c reductase (G3PDH+CIII) and antimycin-sensitive quinol cytochrome c reductase (CIII) as previously described.
(§2) The effects of eight different SDHIs (up to 500 μM; S2 Fig) were determined on four different biological materials. Because IC50 are known to be affected by the actual absolute activity of the tested enzyme, these IC50 were quantified using similar levels of SDH enzyme activity during the assay. IC50 values were determined using the AAT Bioquest IC50 calculator tool (https://www.aatbio.com/tools/ic50-calculator).

[3] = target: T2, glycerol-3-phosphate cytochrome c reductase (G3PDH+CIII) (Botrytis cinerea, UniProt Q18ND9); experiment: GCCR activity, Botrytis cinerea mitochondria; type: biochemical
T2 sequence (Q18ND9 1-391): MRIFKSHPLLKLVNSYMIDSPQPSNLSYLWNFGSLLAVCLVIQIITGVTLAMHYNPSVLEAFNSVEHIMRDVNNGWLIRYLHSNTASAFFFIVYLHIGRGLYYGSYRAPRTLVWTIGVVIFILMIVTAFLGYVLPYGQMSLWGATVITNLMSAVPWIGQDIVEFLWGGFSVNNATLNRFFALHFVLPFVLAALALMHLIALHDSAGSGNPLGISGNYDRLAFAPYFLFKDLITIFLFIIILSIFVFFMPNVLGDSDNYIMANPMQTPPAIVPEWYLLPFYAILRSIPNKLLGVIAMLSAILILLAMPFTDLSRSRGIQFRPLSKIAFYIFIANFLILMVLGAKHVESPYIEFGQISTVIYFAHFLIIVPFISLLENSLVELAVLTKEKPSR
Experimental: The mixed population of B. cinerea fungi used in this study was kindly provided by Dr. Joelle Dupont (Museum National d’Histoire Naturelle, Paris, France). Conidia from Botrytis cinerea were obtained from 15–30 d cultures grown on malt medium agar plates. Mycelial colonies were prepared by seeding conidia from 10 colonies in liquid medium (10 g of glucose, 2 g of KH2PO4, 0.5 g of MgSO47H2O, 1 g of (NH4)2SO4, 2 g of yeast extract and deionized water up to 1 l, pH 6.2). Incubation was performed at 23°C until hyphae totally covered the surface of the bottle. The hyphae (9-cm-diameter disks) were harvested, washed twice with refrigerated distilled water and finally with mitochondria extraction medium containing 20 mM Tris (pH 7.2), 0.25 M sucrose, 40 mM KCl, 2 mM EGTA, 1 mg/ml BSA, and no cysteine. The hyphae were suspended in 150 ml of extraction medium, cut in small pieces (1 cm^2) and then disrupted at high speed for 1×2 sec and at low speed for 2×3 sec using a MultiMoulinex mixer (Moulinex, France). The suspension of disrupted hyphae was then filtered through two layers of nylon cloth (clearance 150 μm). The cloth was washed with 50 ml of extraction medium. After low-speed centrifugation (700 g for 15 min), the mitochondria were collected at 10,000 g for 20 min. The pellet was suspended in 250 μl of extraction medium, aliquoted (± 30 μl) and kept frozen at -80°C.
as §1, §2

[4] = Acceptable Daily Intake according to European regulations and corresponding blood concentration
Experimental: It is extremely hazardous to compare the IC50 values obtained in vitro under laboratory conditions with the concentrations of SDHI that might result from the application of these pesticides on crops. One can however reliably determine the concentration of SDHI at the outlet of the diffusion nozzles. In the case of bixafen, it is about 0.6 to 1.8 mM according to the recommendations distributed to farmers, resulting in a cloud of nebulization, corresponding to 75–125 g/hectare of bixafen. The final exposition depends on numerous factors hard to control, including the spreading conditions, the nature of the ground, its vegetation cover, etc. From a regulatory point of view, the ADI for example for boscalid and bixafen amounts to 0.04 and 0.02 mg / kg / day, respectively (see legend S2 Fig). For an average adult (60 kg / blood volume 5 l), this correspond to a blood concentration of approximately 1.40 and 0.58 μM, respectively.
Supplementary file pone.0224132.s003.pdf: S2 Fig SDHI molecular structure. The yellow and blue parts for each molecule are reminiscent of the predecessor carboxin structure (top). […] ADI; Acceptable Daily Intake according to European regulations. (PDF) Click here for additional data file.

| SMILES | ADI (Acceptable Daily Intake) [1] | IC50 [2] | IC50 [3] | Blood concentration corresponding to the ADI ([4]; average adult 60 kg, blood volume 5 l) | Blood concentration corresponding to the ADI [4] |
| --- | --- | --- | --- | --- | --- |
| CC(C)Oc1cccc(NC(=O)c2ccccc2C(F)(F)F)c1 [Flutolanil, flutolanil] | 0.09 mg/kg/day | – | – | – | – |
| CC(C)C1C2CCC1c1c(NC(=O)c3cn(C)nc3C(F)F)cccc12 (centres unmarked) [Isopyrazam, isopyrazam] | 0.03 mg/kg/day | 97 µM | 27.9 µM | – | – |
| O=C(Nc1ccccc1-c1ccc(Cl)cc1)c1cccnc1Cl [Boscalid, boscalid] | – | – | – | approximately 1.40 μM | – |
| Cc1nn(C)c(F)c1C(=O)Nc1ccccc1C(C)CC(C)C (centres unmarked) [Penflufen, penflufen] | 0.04 mg/kg/day | > 500 µM | 80 µM | – | – |
| Cn1cc(C(=O)Nc2ccc(F)cc2-c2ccc(Cl)c(Cl)c2)c(C(F)F)n1 [Bixafen, bixafen] | – | 24.1 µM | 22.5 µM | – | 580 nM |
| Cn1cc(C(=O)Nc2ccccc2-c2cc(F)c(F)c(F)c2)c(C(F)F)n1 [Fluxapyroxad, fluxapyroxad] | – | 205 µM | 60 µM | – | 580 nM |
